Results from patent US11274092B2, “Potassium channel inhibitors” (ACESION PHARMA ApS, priority 2016, dated 2022).

Each molecule was assayed against T1, human SK3 channel (hKCa2.3) (Homo sapiens, UniProt Q9UGI6) (assay: Automated whole cell patch-clamp (QPatch 16 HT), inhibition of SK3 current). Conditions: HEK-293 cells stably expressing hKCa2.3; symmetrical K+ solutions, free calcium 400 nM; effects normalized to N-methyl bicuculline.
T1 construct: expressed in transfected cells
Type: cell-based
Summary of the method: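 HEK-293 cells stably expressing hKCa2.3, automated whole-cell patch clamp in symmetrical K+ (400 nM free intracellular Ca2+, pH 7.2; external pH 7.4). Held at 0 mV, ramps −80 to +80 mV (200 ms) every 5 s; increasing compound concentrations, currents run-down corrected and normalized to 100 μM N-methyl bicuculline; IC50 reported.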

Row | IC50 | Compound
1 | 10 to 100 µM | CC(C)(O)CNC(=O)CC(Nc1nc2ccccc2[nH]1)c1cccc(C(F)(F)F)c1 (single isomer, unassigned; (-)) [Example 4a, (−) 3-[(1H-1,3-benzodiazol-2-yl)amino]-N-(2-hydroxy-2-methylpropyl)-3-[3-(trifluoromethyl)phenyl]propanamide]
2 | < 10 µM | COC[C@H](NC(=O)CC(Nc1nc2ccccc2[nH]1)c1cccc(C(F)(F)F)c1)c1ccccc1 (single isomer, unassigned) [Example 69a]
3 | 10 to 100 µM | CN1CCN(C(=O)C(Nc2nc3ccccc3[nH]2)c2cccc(C(F)(F)F)c2)CC1 (single isomer, unassigned; (-)) [Example 27a, (−)2-[(1H-1,3-benzodiazol-2-yl)amino]-1-(4-methylpiperazin-1-yl)-2-[3-(trifluoromethyl)phenyl]ethan-1-one]
4 | < 10 µM | O=C(CC(Nc1nc2ccccc2[nH]1)c1cccc(C(F)(F)F)c1)NCCOCC(F)(F)F (single isomer, unassigned) [Example 68a, 3-[(1H-1,3-benzodiazol-2-yl)amino]-N-[2-(2,2,2-trifluoroethoxy)ethyl]-3-[3-(trifluoromethyl)phenyl]propanamide]
5 | < 10 µM | COC[C@H](NC(=O)CC(Nc1nc2ccccc2[nH]1)c1cccc(SC(F)(F)F)c1)c1ccccc1 (single isomer, unassigned) [Example 70a]
6 | < 10 µM | COC(=O)CN(C)C(=O)CC(Nc1nc2ccccc2[nH]1)c1cccc(C(F)(F)F)c1 (single isomer, unassigned; (-)) [Example 57a, (−)Methyl 2-{3-[(1H-1,3-benzodiazol-2-yl)amino]-N-methyl-3-[3-(trifluoromethyl)phenyl]propanamido}acetate]
7 | < 10 µM | O=C(C(Nc1nc2ccccc2[nH]1)c1cccc(C(F)(F)F)c1)N1CCC1 (single isomer, unassigned; (+)) [Example 34a, (+)1-(azetidin-1-yl)-2-[(1H-1,3-benzodiazol-2-yl)amino]-2-[3-(trifluoromethyl)phenyl]ethan-1-one]

The remaining lines, values behind:

Row | Compound | IC50
8 | CCN(CC#N)C(=O)CC(Nc1nc2c(CO)cccc2[nH]1)c1cccc(C(F)(F)F)c1 (centres unmarked) [Example 53, N-(cyanomethyl)-N-ethyl-3-{[4-(hydroxymethyl)-1H-1,3-benzodiazol-2-yl]amino}-3-[3-(trifluoromethyl)phenyl]propanamide] | 10 to 100 µM
9 | CN(CC#N)C(=O)CC(Nc1nc2c(CCO)cccc2[nH]1)c1cccc(C(F)(F)F)c1 (centres unmarked) [Example 51, N-(cyanomethyl)-3-{[4-(2-hydroxyethyl)-1H-1,3-benzodiazol-2-yl]amino}-N-methyl-3-[3-(trifluoromethyl)phenyl]propanamide] | 10 to 100 µM
10 | CCN(CC#N)C(=O)CC(Nc1nc2ccccc2[nH]1)c1cccc(C(F)(F)F)c1 (centres unmarked) [Example 55, 3-[(1H-1,3-benzodiazol-2-yl)amino]-N-(cyanomethyl)-N-ethyl-3-[3-(trifluoromethyl)phenyl]propanamide] | < 10 µM
11 | O=C(CC(Nc1nc2ccccc2[nH]1)c1cccc(OC(F)(F)F)c1)NCc1nc2ccccc2o1 (centres unmarked) [Example 90, 3-[(1H-1,3-benzodiazol-2-yl)amino]-N-(1,3-benzoxazol-2-ylmethyl)-3-[3-(trifluoromethoxy)phenyl]propanamide] | < 10 µM
12 | COCCNC(=O)CC(Nc1nc2ccccc2[nH]1)c1cccc(SC(F)(F)F)c1 (centres unmarked) [Example 82, 3-[(1H-1,3-benzodiazol-2-yl)amino]-N-(2-methoxyethyl)-3-{3-[(trifluoromethyl)sulfanyl]phenyl}propanamide] | < 10 µM
13 | Cn1ccnc1CNC(=O)CC(Nc1nc2ccccc2[nH]1)c1cccc(C(F)(F)F)c1 (centres unmarked) [Example 19, 3-[(1H-1,3-benzodiazol-2-yl)amino]-N-[(1-methyl-1H-imidazol-2-yl)methyl]-3-[3-(trifluoromethyl)phenyl]propanamide] | 10 to 100 µM
14 | C[N+]1(C)CCN(C(=O)C(Nc2nc3ccccc3[nH]2)c2cccc(C(F)(F)F)c2)CC1 (centres unmarked) [Example 37, 4-{2-[(1H-1,3-benzodiazol-2-yl)amino]-2-[3-(trifluoromethyl)phenyl]acetyl}-1,1-dimethylpiperazin-1-ium iodide] | 10 to 100 µM
15 | CN(CC#N)C(=O)CC(Nc1nc2c(CO)cccc2[nH]1)c1cccc(C(F)(F)F)c1 (centres unmarked) [Example 50, N-(cyanomethyl)-3-{[4-(hydroxymethyl)-1H-1,3-benzodiazol-2-yl]amino}-N-methyl-3-[3-(trifluoromethyl)phenyl]propanamide] | 10 to 100 µM
16 | O=C(CC(Nc1nc2ccccc2[nH]1)c1cccc(C(F)(F)F)c1)NCc1nc2ccccc2o1 (centres unmarked) [Example 72, 3-[(1H-1,3-benzodiazol-2-yl)amino]-N-(1,3-benzoxazol-2-ylmethyl)-3-[3-(trifluoromethyl)phenyl]propanamide] | < 10 µM
17 | CN(CC#N)C(=O)CC(Nc1nc2ccccc2[nH]1)c1cccc(C(F)(F)F)c1 (centres unmarked) [Example 56, 3-[(1H-1,3-benzodiazol-2-yl)amino]-N-(cyanomethyl)-N-methyl-3-[3-(trifluoromethyl)phenyl]propanamide] | < 10 µM
18 | O=C(C(Nc1nc2ccccc2[nH]1)c1cccc(C(F)(F)F)c1)N1CCNCC1 (centres unmarked) [Example 26, 2-[(1H-1,3-benzodiazol-2-yl)amino]-1-(piperazin-1-yl)-2-[3-(trifluoromethyl)phenyl]ethan-1-one] | 10 to 100 µM
19 | Cc1ncc(CNC(=O)CC(Nc2nc3ccccc3[nH]2)c2cccc(C(F)(F)F)c2)s1 (centres unmarked) [Example 77, 3-[(1H-1,3-benzodiazol-2-yl)amino]-N-[(2-methyl-1,3-thiazol-5-yl)methyl]-3-[3-(trifluoromethyl)phenyl]propanamide] | < 10 µM
20 | COC(=O)CN(C)C(=O)CC(Nc1nc2ccccc2[nH]1)c1cccc(C(F)(F)F)c1 (centres unmarked) [Example 57, Methyl 2-{3-[(1H-1,3-benzodiazol-2-yl)amino]-N-methyl-3-[3-(trifluoromethyl)phenyl]propanamido}acetate] | < 10 µM
21 | COC(=O)[C@@H](C)NC(=O)CC(Nc1nc2ccccc2[nH]1)c1cccc(C(F)(F)F)c1 (stereo partly drawn) [Example 46, Methyl (2R)-2-{3-[(1H-1,3-benzodiazol-2-yl)amino]-3-[3-(trifluoromethyl)phenyl]propanamido}propanoate] | < 10 µM
22 | COCCNC(=O)CC(Nc1nc2c(C)c(F)ccc2[nH]1)c1cccc(C(F)(F)F)c1 (centres unmarked) [Example 96, 3-[(5-fluoro-4-methyl-1H-1,3-benzodiazol-2-yl)amino]-N-(2-methoxyethyl)-3-[3-(trifluoromethyl)phenyl]propanamide] | 10 to 100 µM
23 | CCN(CCN(C)C)C(=O)CC(Nc1nc2ccccc2[nH]1)c1cccc(C(F)(F)F)c1 (centres unmarked) [Example 45, 3-[(1H-1,3-benzodiazol-2-yl)amino]-N-[2-(dimethylamino)ethyl]-N-ethyl-3-[3-(trifluoromethyl)phenyl]propanamide] | 10 to 100 µM
24 | O=C(CC(Nc1nc2ccccc2[nH]1)c1cccc(C(F)(F)F)c1)NCC1CCCO1 (centres unmarked) [Example 8, 3-[(1H-1,3-benzodiazol-2-yl)amino]-N-(oxolan-2-ylmethyl)-3-[3-(trifluoromethyl)phenyl]propanamide] | < 10 µM
25 | O=C(CC(Nc1nc2ccccc2[nH]1)c1cccc(C(F)(F)F)c1)NCCOCC(F)(F)F (centres unmarked) [Example 68, 3-[(1H-1,3-benzodiazol-2-yl)amino]-N-[2-(2,2,2-trifluoroethoxy)ethyl]-3-[3-(trifluoromethyl)phenyl]propanamide] | < 10 µM
26 | COCCNC(=O)CC(Nc1nc2c(OC)cccc2[nH]1)c1cccc(C(F)(F)F)c1 (centres unmarked) [Example 93, 3-[(4-methoxy-1H-1,3-benzodiazol-2-yl)amino]-N-(2-methoxyethyl)-3-[3-(trifluoromethyl)phenyl]propanamide] | < 10 µM
